These results are taken from ChEMBL document CHEMBL5131534, “Identification of 2-Pyridinylindole-Based Dual Antagonists of Toll-like Receptors 7 and 8 (TLR7/8)” (ACS Med Chem Lett, 2022).

By IC50 is commonly meant the concentration that inhibits the measured activity by half. As a reminder, the fraction unbound is the share of the substance not bound to proteins or other matrix.

One data set addresses T1, Toll-like receptor 7 (Mus musculus, UniProt P58681).
T1 sequence (P58681 whole entry): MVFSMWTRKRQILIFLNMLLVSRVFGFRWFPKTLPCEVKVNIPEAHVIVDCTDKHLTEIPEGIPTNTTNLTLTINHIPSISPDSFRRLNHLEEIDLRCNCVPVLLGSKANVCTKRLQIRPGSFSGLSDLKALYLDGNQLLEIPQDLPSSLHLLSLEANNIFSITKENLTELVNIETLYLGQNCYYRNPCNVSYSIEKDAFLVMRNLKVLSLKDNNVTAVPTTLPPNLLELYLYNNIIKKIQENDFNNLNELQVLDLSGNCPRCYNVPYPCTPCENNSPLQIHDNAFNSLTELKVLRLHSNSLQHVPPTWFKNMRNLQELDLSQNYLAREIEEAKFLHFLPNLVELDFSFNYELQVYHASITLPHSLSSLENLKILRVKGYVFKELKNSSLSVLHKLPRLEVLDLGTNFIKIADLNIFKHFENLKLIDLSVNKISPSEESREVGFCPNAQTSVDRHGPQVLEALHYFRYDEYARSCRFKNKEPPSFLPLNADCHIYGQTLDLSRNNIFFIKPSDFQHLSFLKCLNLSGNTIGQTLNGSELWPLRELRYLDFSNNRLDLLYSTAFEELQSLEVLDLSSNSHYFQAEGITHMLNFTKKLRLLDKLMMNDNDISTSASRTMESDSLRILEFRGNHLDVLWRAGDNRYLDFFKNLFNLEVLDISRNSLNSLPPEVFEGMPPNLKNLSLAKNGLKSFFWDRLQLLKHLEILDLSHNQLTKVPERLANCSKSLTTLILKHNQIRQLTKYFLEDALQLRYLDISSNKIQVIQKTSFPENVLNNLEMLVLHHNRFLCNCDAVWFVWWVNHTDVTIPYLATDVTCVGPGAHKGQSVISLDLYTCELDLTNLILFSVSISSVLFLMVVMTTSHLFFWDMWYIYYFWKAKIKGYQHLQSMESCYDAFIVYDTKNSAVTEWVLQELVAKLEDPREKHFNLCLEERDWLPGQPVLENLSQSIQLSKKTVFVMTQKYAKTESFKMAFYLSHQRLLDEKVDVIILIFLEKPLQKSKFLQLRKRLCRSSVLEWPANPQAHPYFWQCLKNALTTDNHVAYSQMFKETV
Briefly: Antagonist activity at gardiquimod stimulated TRL7 in mouse whole blood assessed as inhibition of IL-6 production by ELISA analysis. The data set is classed as tissue-based. For orientation: An ELISA detects its analyte on a solid surface through an enzyme-linked reagent.

The nature of data set [1]: Plasma protein binding in mouse assessed as free fraction. Format: ADME, cell-free.
A short description of data set [2]: In vivo antagonist activity at TRL9 in C57BL/6 mouse assessed as inhibition of ODN1585 stimulated IL-6 production at 3 mg/kg,po for 30 minutes and followed by ODN1585 addition measured after 90 mins by ELISA analysis relative to control. The data set is classed as functional. Set-up: scale not given: the % may be the effect or the level left. Particulars: time 120 min, 2 h.

A short description of data set [3]: Toxicity in MRL/Ipr Systemic lupus erythematosus mouse model assessed as relative spleen weight at 0.1 mg/kg, po administered for 8 weeks and measured 24 hrs post final relative to control. The data set is classed as organism-based. As to conditions: in vivo, 1368 h.
Data set [4] in a line: Toxicity in MRL/Ipr Systemic lupus erythematosus mouse model assessed as change in body weight at 0.1 to 20 mg/kg, po administered for 8 weeks and measured 24 hrs post final dose. Format: organism-based. Particulars: in vivo, 1368 h, dose 0.1-20 mg/kg.

Consider `Cc1cc(-c2[nH]c3ccc(C4CCNCC4)cc3c2C(C)C)cc(C)n1`, for which the IC50 on Toll-like receptor 7 amounted to 300 pM. Besides, the fraction unbound in data set [1] is 0.05. The Activity was 29% in data set [2], 28% in data set [3] and “Non-Toxic” in data set [4].
